Measured values published in US20150176022A1, “HERBICIDE-RESISTANT SUNFLOWER PLANTS, POLYNUCLEOTIDES ENCODING HERBICIDE=RESISTANT ACETO HYDROXY ACID SYNTHASE LARGE SUBUNIT PROTEINS, AND METHODS OF USE” (priority 2013, published 2015).
Where “and” joins values, the source holds several entries; their conditions need not be identical. Equal values may be shown once.

Key:
Type in all cases: in vivo, Helianthus annuus
[1] = tested on: Clearfield-Sunflower variety A; assay: Greenhouse spray test, injury rating (Example 5); settings: Imazapyr 240 gm ai/ha, 14 DAT, scale 0=no injury to 9=dead plant
Text: (§1) Sunflower lines S4897, Clearfield® sunflower varieties A, B, C and a conventional non-Clearfield variety were sprayed with three rates of imazamox (Raptor™), 100, 200 and 300 gm ai/ha plus 0.5% Sun It II and two rates of imazapyr (Arsenal™) 160 and 360 gm ai/ha plus 0.5% Sun It II when the plants were at the two to three leaf stage. Ratings were taken at 14 days after application (DAT) for injury. Injury was rated on a scale from 0 to 9 where 0=no injury to 9=dead plant. Twelve plants were sprayed per herbicide/rate treatment. Statistical analysis was conducted with STATGRAPHICS Plus 5.0 by using ANOVA and LSD procedures.
(§2) After plants were sprayed, it was realized that a height difference between S4897 and other sunflower varieties would have impacted the actual herbicide dose that was delivered. The spray boom height had been calibrated against S4897 and since the other varieties were taller and closer to the boom they would have received a greater dose of herbicide. Rates were recalibrated for the other varieties to determine the approximate dose they would have received. Assessments were made as presented in Table 2 since it was not possible to make a direct rate comparison due to the effect of the height. For example injury scores were compare for S4897 treated imazamox rate 100 gm ai/ha to the other varieties treated at 75 gm ai/ha. The treatment dose of 300 gm ai/ha for line S4897 was equivalent to the treatment of 200 gm ai/ha for the other varieties, which […].

[2] = tested on: Clearfield-Sunflower variety B; assay: Greenhouse spray test, injury rating (Example 5); settings: Imazapyr 240 gm ai/ha, 14 DAT, scale 0=no injury to 9=dead plant
Text: as §1, §2

[3] = tested on: Clearfield-Sunflower variety C; assay: Greenhouse spray test, injury rating (Example 5); settings: Imazapyr 240 gm ai/ha, 14 DAT, scale 0=no injury to 9=dead plant
Text: as §1, §2

[4] = tested on: Conventional non-Clearfield sunflower variety; assay: Greenhouse spray test, injury rating (Example 5); settings: Imazapyr 240 gm ai/ha, 14 DAT, scale 0=no injury to 9=dead plant
Text: as §1, §2

[5] = tested on: Sunflower line S4897; assay: Greenhouse spray test, injury rating (Example 5); settings: Imazapyr 360 gm ai/ha, 14 DAT, scale 0=no injury to 9=dead plant
Text: as §1, §2

[6] = tested on: sunflower genotypes carrying the A122T mutation event; assay: Greenhouse whole-plant imazapir dose response (Example 8), group mean; settings: 14 DAT; for biomass, Dif with control (reduction), A122T / plant height, Dif with Control (height reduction), A122T / root dry weight, Dif with control (reduction), A122T: A122T mean; for biomass accumulation (% of untreated), Mean A122T / plant height (% of untreated), Mean A122T / root dry weight (% of untreated), Mean A122T: mean of six A122T genotypes; for Phytotoxicity Index, Mean A122T: mean of three A122T genotypes
Description: (§3) A greenhouse study was conducted to quantify and contrast the imazapir sensitivity of the mutants A122T and A205V in different genetic backgrounds at the whole plant level in sunflower. Seeds of the different sunflower lines that were used in this study were obtained under field conditions.
(§4) Seeds were sown in Petri dishes and, after germination, plantlets were transplanted to pots of 10 cm of diameter in a potting media consisting of equal parts of vermiculite, soil and sand. Plants were grown in a greenhouse under natural light conditions supplemented with 400 W sodium halide lamps to provide a 16 hrs daylength. Day/night temperatures were 25 and 20° C., respectively. At the V2 stage 10 plants of each genotype were randomly assigned to each treatment consisting of […] imazapir doses (0, 40, 80, 160, 240, 320, 400 and 480 g ai/ha), and a zero-time biomass determination. Experiment was arranged as a randomized block design with a full factorial (sunflower line×treatment) arrangement of treatments and 10 replications.
(§5) On the day of herbicide application ten plants of each genotype were cut at the cotyledonal node and dried at 60° C. for 48 hrs zero-time for dried weight determination. […] Height was determined as the distance between the cotyledonal node and the apex of each plant. For root biomass determination, each plant was taken from the pot and the potting media was washed out from the roots. Above ground biomass data from each line were converted to biomass accumulation after application by subtracting the appropriate average zero-time biomass from each sample. Dry biomass data were converted to percentages of the untreated control plants within each line to allow direct comparisons between groups.

[7] = tested on: A122T versus A205V sunflower genotypes; assay: Greenhouse whole-plant imazapir dose response (Example 8), difference between mutants; settings: difference of group means, 14 DAT
Description: as §3, §4, §5

CC(C)C1(C)N=C(c2ncccc2C(=O)O)NC1=O (centres unmarked) [imazapir, imazapyr]
Injury [1]: 5.0 c | Injury [2]: 4.3 b | Injury [3]: 4.9 c | Injury [4]: 8.2 days | Injury ([5]; listed as Imazapyr): 0.8 a | Injury ([5]; listed as imazapyr): very little injury | biomass, Dif with control (reduction), A122T ([6]; 0.5× (40 g ai/ha)): 1.1% | plant height, Dif with Control (height reduction), A122T ([6]; 0.5× (40 g ai/ha)): 0.6% | root dry weight, Dif with control (reduction), A122T ([6]; 0.5× (40 g ai/ha)): 0.1% | biomass, Dif with control (reduction), A122T ([6]; 1× (80 g ai/ha)): 3.2% | plant height, Dif with Control (height reduction), A122T ([6]; 1× (80 g ai/ha)): 1.4% | root dry weight, Dif with control (reduction), A122T ([6]; 1× (80 g ai/ha)): 2.5% | biomass, Dif with control (reduction), A122T ([6]; 2× (160 g ai/ha)): 5.1% | plant height, Dif with Control (height reduction), A122T ([6]; 2× (160 g ai/ha)): 2.7% | root dry weight, Dif with control (reduction), A122T ([6]; 2× (160 g ai/ha)): 5.9% | biomass, Dif with control (reduction), A122T ([6]; 3× (240 g ai/ha)): 7.2% | plant height, Dif with Control (height reduction), A122T ([6]; 3× (240 g ai/ha)): 4.4% | root dry weight, Dif with control (reduction), A122T ([6]; 3× (240 g ai/ha)): 10.6% | biomass, Dif with control (reduction), A122T ([6]; 4× (320 g ai/ha)): 12.2% | plant height, Dif with Control (height reduction), A122T ([6]; 4× (320 g ai/ha)): 6.3% | root dry weight, Dif with control (reduction), A122T ([6]; 4× (320 g ai/ha)): 18.6% | biomass, Dif with control (reduction), A122T ([6]; 5× (400 g ai/ha)): 20.7% | plant height, Dif with Control (height reduction), A122T ([6]; 5× (400 g ai/ha)): 10.2% | root dry weight, Dif with control (reduction), A122T ([6]; 5× (400 g ai/ha)): 21.3% | biomass, Dif with control (reduction), A122T ([6]; 6× (480 g ai/ha)): 25% and 25.4% | plant height, Dif with Control (height reduction), A122T ([6]; 6× (480 g ai/ha)): 15.8% | root dry weight, Dif with control (reduction), A122T ([6]; 6× (480 g ai/ha)): 38.3% | biomass accumulation (% of untreated), Mean A122T ([6]; 0.5× (40 g ai/ha)): 98.9% | plant height (% of untreated), Mean A122T ([6]; 0.5× (40 g ai/ha)): 99.4% | root dry weight (% of untreated), Mean A122T ([6]; 0.5× (40 g ai/ha)): 99.9% | biomass accumulation (% of untreated), Mean A122T ([6]; 1× (80 g ai/ha)): 96.8% | plant height (% of untreated), Mean A122T ([6]; 1× (80 g ai/ha)): 98.6% | root dry weight (% of untreated), Mean A122T ([6]; 1× (80 g ai/ha)): 97.5% | biomass accumulation (% of untreated), Mean A122T ([6]; 2× (160 g ai/ha)): 94.9% | plant height (% of untreated), Mean A122T ([6]; 2× (160 g ai/ha)): 97.3% | root dry weight (% of untreated), Mean A122T ([6]; 2× (160 g ai/ha)): 94.1% | biomass accumulation (% of untreated), Mean A122T ([6]; 3× (240 g ai/ha)): 92.8% | plant height (% of untreated), Mean A122T ([6]; 3× (240 g ai/ha)): 95.6% | root dry weight (% of untreated), Mean A122T ([6]; 3× (240 g ai/ha)): 89.4% | biomass accumulation (% of untreated), Mean A122T ([6]; 4× (320 g ai/ha)): 87.8% | plant height (% of untreated), Mean A122T ([6]; 4× (320 g ai/ha)): 93.7% | root dry weight (% of untreated), Mean A122T ([6]; 4× (320 g ai/ha)): 81.4% | biomass accumulation (% of untreated), Mean A122T ([6]; 5× (400 g ai/ha)): 79.3% | plant height (% of untreated), Mean A122T ([6]; 5× (400 g ai/ha)): 89.8% | root dry weight (% of untreated), Mean A122T ([6]; 5× (400 g ai/ha)): 78.7% | biomass accumulation (% of untreated), Mean A122T ([6]; 6× (480 g ai/ha)): 74.6% | plant height (% of untreated), Mean A122T ([6]; 6× (480 g ai/ha)): 84.2% | root dry weight (% of untreated), Mean A122T ([6]; 6× (480 g ai/ha)): 61.7% | Phytotoxicity Index, Mean A122T ([6]; 0.5× (40 g ai/ha)): 0.3 | Phytotoxicity Index, Mean A122T ([6]; 1× (80 g ai/ha)): 0.3 | Phytotoxicity Index, Mean A122T ([6]; 2× (160 g ai/ha)): 0.3 | Phytotoxicity Index, Mean A122T ([6]; 3× (240 g ai/ha)): 0.3 | Phytotoxicity Index, Mean A122T ([6]; 4× (320 g ai/ha)): 0.5 | Phytotoxicity Index, Mean A122T ([6]; 5× (400 g ai/ha)): 0.8 | Phytotoxicity Index, Mean A122T ([6]; 6× (480 g ai/ha)): 1.2 | Phytotoxicity Index, Dif A205V-A122T ([7]; 0.5× (40 g ai/ha)): −0.29 | biomass, Dif A122T-A205V ([7]; 0.5× (40 g ai/ha)): 4.3% | plant height, Dif A122T-A205V ([7]; 0.5× (40 g ai/ha)): 4.9% | root dry weight, Dif A122T-A205V ([7]; 0.5× (40 g ai/ha)): 12.7% | Phytotoxicity Index, Dif A205V-A122T ([7]; 1× (80 g ai/ha)): −0.29 | biomass, Dif A122T-A205V ([7]; 1× (80 g ai/ha)): 14.5% | plant height, Dif A122T-A205V ([7]; 1× (80 g ai/ha)): 9.4% | root dry weight, Dif A122T-A205V ([7]; 1× (80 g ai/ha)): 26.7% | Phytotoxicity Index, Dif A205V-A122T ([7]; 2× (160 g ai/ha)): 1.87 | biomass, Dif A122T-A205V ([7]; 2× (160 g ai/ha)): 33.2% | plant height, Dif A122T-A205V ([7]; 2× (160 g ai/ha)): 28.0% | root dry weight, Dif A122T-A205V ([7]; 2× (160 g ai/ha)): 43.6% | Phytotoxicity Index, Dif A205V-A122T ([7]; 3× (240 g ai/ha)): 4.81 | biomass, Dif A122T-A205V ([7]; 3× (240 g ai/ha)): 45.3% | plant height, Dif A122T-A205V ([7]; 3× (240 g ai/ha)): 45.3% | root dry weight, Dif A122T-A205V ([7]; 3× (240 g ai/ha)): 50.2% | Phytotoxicity Index, Dif A205V-A122T ([7]; 4× (320 g ai/ha)): 6.92 | biomass, Dif A122T-A205V ([7]; 4× (320 g ai/ha)): 52.4% | plant height, Dif A122T-A205V ([7]; 4× (320 g ai/ha)): 59.9% | root dry weight, Dif A122T-A205V ([7]; 4× (320 g ai/ha)): 50.3% | Phytotoxicity Index, Dif A205V-A122T ([7]; 5× (400 g ai/ha)): 7.38 | biomass, Dif A122T-A205V ([7]; 5× (400 g ai/ha)): 46.9% | plant height, Dif A122T-A205V ([7]; 5× (400 g ai/ha)): 57.8% | root dry weight, Dif A122T-A205V ([7]; 5× (400 g ai/ha)): 47.9% | Phytotoxicity Index, Dif A205V-A122T ([7]; 6× (480 g ai/ha)): 7.03 | biomass, Dif A122T-A205V ([7]; 6× (480 g ai/ha)): 44.6% | plant height, Dif A122T-A205V ([7]; 6× (480 g ai/ha)): 54.0% | root dry weight, Dif A122T-A205V ([7]; 6× (480 g ai/ha)): 37.3%
